In ChEMBL document CHEMBL4673220, “Synthesis of new coumarin tethered isoxazolines as potential anticancer agents” (Bioorg Med Chem Lett, 2018):
Activity calls are given as the source filed them. The calls are words filed in the database; no cut-off is given here.

Legend:
UACC-903 [1] = experiment: Antiproliferative activity against human UACC-903 cells assessed as reduction in cell viability at 0.5 to 200 uM by MTS assay; format: functional, cell-based; conditions: dose 0.5-200 µM, TDE = time-dependent effect
UACC-903 [2] = experiment: Antiproliferative activity against human UACC-903 cells assessed as reduction in cell viability measured after 72 hrs by MTS assay; format: functional, cell-based; conditions: for IC50: UACC-903, 72 h
UACC-903 [3] = experiment: Antiproliferative activity against human UACC-903 cells assessed as reduction in cell viability at 0.5 to 200 uM measured after 72 hrs by MTS assay; format: functional, cell-based; conditions: dose 0.5-200 µM
[4] = Cytotoxicity against human FF2441 cells assessed as reduction in cell viability at 0.2 to 100 uM measured after 72 hrs by MTS assay; format: cell-based; conditions: ff2441, 72 h, dose 0.2-100 µM
Chorioallantoic membrane [5] = experiment: Antiangiogenic activity in chicken fertilized egg chorioallantoic membrane assessed as inhibition of secretion of VEGF-like factors; format: functional; conditions: Gallus gallus, Embryo
Chorioallantoic membrane [6] = experiment: Antiangiogenic activity in chicken fertilized egg chorioallantoic membrane assessed as inhibition of expression of VEGF-like factors; format: functional; conditions: Gallus gallus, Embryo
Chorioallantoic membrane [7] = experiment: Antiangiogenic activity in chicken fertilized egg chorioallantoic membrane assessed as inhibition of VEGF165-induced vascularization incubated for 2 days by digital camera photography analysis; format: functional; conditions: Gallus gallus, Embryo, time 2.0 day
Ehrlich [8] = experiment: Antitumor activity against mouse EAT cells implanted in ip dosed Swiss albino mouse assessed as suppression of peritoneal angiogenesis at […] administered on day 7, 9 and 11 post implantation and measured on day 12 by Hematoxylin and eosin staining based assay; format: functional, organism-based; conditions: time 3.0 day
Ehrlich [9] = experiment: Antitumor activity against mouse EAT cells implanted in ip dosed Swiss albino mouse assessed as induction of apoptosis causing apoptotic body formation administered on day 7, 9 and 11 post implantation and measured on day 12 by Giemsa staining based light microscopy; format: functional, organism-based; conditions: dose 100.0 mg/kg, time 3.0 day
Ehrlich [10] = experiment: Antitumor activity against mouse EAT cells implanted in ip dosed Swiss albino mouse assessed as induction of apoptosis causing membrane blebbing administered on day 7, 9 and 11 post implantation and measured on day 12 by Giemsa staining based light microscopy; format: functional, organism-based; conditions: dose 100.0 mg/kg, time 3.0 day
Ehrlich [11] = experiment: Antitumor activity against mouse EAT cells implanted in ip dosed Swiss albino mouse assessed as induction of apoptosis causing shrinkage of cells administered on day 7, 9 and 11 post implantation and measured on day 12 by Giemsa staining based light microscopy; format: functional, organism-based; conditions: dose 100.0 mg/kg, time 3.0 day
Ehrlich [12] = experiment: Antitumor activity against mouse EAT cells implanted in ip dosed Swiss albino mouse assessed as induction of apoptosis causing plasma membrane degradation administered on day 7, 9 and 11 post implantation and measured on day 12 by Giemsa staining based light microscopy; format: functional, organism-based; conditions: dose 100.0 mg/kg, time 3.0 day
Ehrlich [13] = experiment: Antitumor activity against mouse EAT cells implanted in ip dosed Swiss albino mouse assessed as increase in mouse survival at 100 mg/kg, ip administered on day 7, 9 and 11 post implantation and measured after 35 days relative to control; format: functional; conditions: time 35 day
Ehrlich [14] = experiment: Antitumor activity against mouse EAT cells implanted in ip dosed Swiss albino mouse assessed as decrease in ascitic cell viability administered on day 7, 9 and 11 post implantation and measured on day 12 by tryphan blue assay; format: functional, organism-based; conditions: dose 100.0 mg/kg, time 3.0 day
Ehrlich [15] = experiment: Antitumor activity against mouse EAT cells implanted in ip dosed Swiss albino mouse assessed as decrease in ascitic fluid administered on day 7, 9 and 11 post implantation and measured on day 12; format: functional, organism-based; conditions: dose 100.0 mg/kg, time 3.0 day
Ehrlich [16] = experiment: Antitumor activity against mouse EAT cells implanted in ip dosed Swiss albino mouse assessed as tumor regression administered on day 7, 9 and 11 post implantation and measured on day 12; format: functional, organism-based; conditions: time 3.0 day
[17] = Toxicity in Swiss albino mouse implanted with mouse EAT cells assessed as decrease in body weight at 100 mg/kg, ip administered on day 7, 9 and 11 post implantation and measured on day 12; format: organism-based; conditions: in vivo, 72 h, time 3 day
Ehrlich [18] = experiment: Antitumor activity against mouse EAT cells implanted in Swiss albino mouse assessed as tumor suppression at 100 mg/kg, ip administered on day 7, 9 and 11 post implantation and measured on day 12 relative to control; format: functional; conditions: 72 h, time 3 day

For `Cc1cc(=O)oc2cc(OCC3CC(c4c(F)cccc4Cl)=NO3)ccc12` (configuration not stated), the Activity (UACC-903 [1]) was “Tde”, the Activity (UACC-903 [2]) was “Dose-dependent effect” and the IC50 (UACC-903 [2]) was 4.5 µM.

For `COc1cc(C2=NOC(COc3ccc4c(C)cc(=O)oc4c3)C2)cc(OC)c1OC` (configuration not stated), the Activity (UACC-903 [3]) was “inactive” and the Activity [4] was “Non-Toxic”.

For `Cc1cc(=O)oc2cc(OCC3CC(c4ccc(Cl)cc4)=NO3)ccc12` (configuration not stated), the Activity (UACC-903 [3]) was “inactive” and the Activity [4] was “Non-Toxic”.

For `COc1cccc(C2=NOC(COc3ccc4c(C)cc(=O)oc4c3)C2)c1` (configuration not stated), the Activity (UACC-903 [3]) was “inactive” and the Activity [4] was “Non-Toxic”.

For `COc1ccc(C2=NOC(COc3ccc4c(C)cc(=O)oc4c3)C2)cc1` (configuration not stated), the Activity (UACC-903 [1]) was “Tde”, the Activity (UACC-903 [2]) was “Dose-dependent effect” and the IC50 (UACC-903 [2]) was 8.8 µM.

For `COc1ccc(C2=NOC(COc3ccc4c(C)cc(=O)oc4c3)C2)cc1OC` (configuration not stated), the Activity (Chorioallantoic membrane [5]) was “Active”, the Activity (Chorioallantoic membrane [6]) was “Active” and the Activity (Chorioallantoic membrane [7]) was “Active”. The Activity (Ehrlich [8]) was “Active”, the Activity (Ehrlich [9]) was “Active” and the Activity (Ehrlich [10]) was “Active”. For the same molecule, the Activity (Ehrlich [11]) was “Active”, the Activity (Ehrlich [12]) was “Active” and the “fold change (FC)” value (Ehrlich [13]) was 2. For the same molecule, the Activity (Ehrlich [14]) was “Active”, the Activity (Ehrlich [15]) was “Active” and the Activity (Ehrlich [16]) was “Dose-dependent effect”. For the same molecule, the Activity (UACC-903 [1]) was “Tde”, the Activity (UACC-903 [2]) was “Dose-dependent effect” and the IC50 (UACC-903 [2]) was 10.5 µM. For the same molecule, the Activity [17] was “Toxic” and the inhibition in vivo at 100 mg/kg (Ehrlich [18]) was 85%.

With `Cc1cc(=O)oc2cc(OCC3CC(c4ccc(C(F)(F)F)cc4)=NO3)ccc12` (configuration not stated) the Activity (UACC-903 [3]) was “inactive” and the Activity [4] was “Non-Toxic”.

With `Cc1cc(=O)oc2cc(OCC3CC(c4ccccc4Cl)=NO3)ccc12` (configuration not stated) the Activity (UACC-903 [1]) was “Tde”, the Activity (UACC-903 [2]) was “Dose-dependent effect” and the IC50 (UACC-903 [2]) was 9.2 µM.

With `Cc1cc(=O)oc2cc(OCC3CC(c4cccc(F)c4)=NO3)ccc12` (configuration not stated) the Activity (UACC-903 [3]) was “inactive” and the Activity [4] was “Non-Toxic”.

In the case of `Cc1cc(=O)oc2cc(OCC3CC(c4ccc5ccccc5c4)=NO3)ccc12` (configuration not stated), the Activity (UACC-903 [3]) is reported as “inactive” and the Activity [4] is reported as “Non-Toxic”.

In the case of `Cc1cc(=O)oc2cc(OCC3CC(c4ccc(F)cc4)=NO3)ccc12` (configuration not stated), the Activity (UACC-903 [3]) is reported as “inactive” and the Activity [4] is reported as “Non-Toxic”.

For `Cc1cc(=O)oc2cc(OCC3CC(c4ccc(Br)cc4)=NO3)ccc12` (configuration not stated), the Activity (UACC-903 [3]) was “inactive” and the Activity [4] was “Non-Toxic”.
